Data published in ChEMBL document CHEMBL1139191, “Discovery and biological evaluation of adamantyl amide 11beta-HSD1 inhibitors” (Bioorg Med Chem Lett, 2007).
pIC50: −log10 of the molar value.

Legend:
[1] = molecular target: 11-beta-hydroxysteroid dehydrogenase 1 (Homo sapiens, UniProt P28845); test: Inhibition of human 11beta-HSD1 expressed in HEK293 cells after 2 hrs by scintillation proximity assay; assay type: cell-based
[2] = molecular target: T1, 11-beta-hydroxysteroid dehydrogenase type 2 (Homo sapiens) (UniProt P80365); test: Inhibition of human 11beta-HSD2 at 10 uM by scintillation proximity assay
T1 sequence (whole entry): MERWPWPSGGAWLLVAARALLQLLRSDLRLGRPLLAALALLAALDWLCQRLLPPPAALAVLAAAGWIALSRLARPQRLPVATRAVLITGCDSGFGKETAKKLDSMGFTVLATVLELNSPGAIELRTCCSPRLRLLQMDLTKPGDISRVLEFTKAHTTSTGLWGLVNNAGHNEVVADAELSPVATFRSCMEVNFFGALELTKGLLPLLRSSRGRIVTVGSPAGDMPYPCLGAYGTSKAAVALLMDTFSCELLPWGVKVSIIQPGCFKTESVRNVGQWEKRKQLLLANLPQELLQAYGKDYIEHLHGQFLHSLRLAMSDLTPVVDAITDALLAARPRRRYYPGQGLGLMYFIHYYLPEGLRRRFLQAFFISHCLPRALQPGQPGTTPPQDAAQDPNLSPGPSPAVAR

[3] = molecular target: 11-beta-hydroxysteroid dehydrogenase 1 (Mus musculus, UniProt P50172); test: Inhibition of mouse 11beta-HSD1 expressed in CHO cells after 4 hrs by scintillation proximity assay; assay type: cell-based
Mus musculus [4] = test: Inhibition of HSD1 in C57BL/6 mouse liver at 10 mg/kg, ip; assay type: functional; details: C57BL/6, Liver, route intraperitoneal
Mus musculus [5] = test: Inhibition of HSD1 in C57BL/6 mouse adipose tissue at 10 mg/kg, ip; assay type: functional; details: C57BL/6, Adipose tissue, route intraperitoneal
Mus musculus [6] = test: Inhibition of HSD1 in C57BL/6 mouse brain at 10 mg/kg, ip; assay type: functional; details: C57BL/6, Brain, route intraperitoneal
Mus musculus [7] = test: Inhibition of HSD1 in C57BL/6 mouse kidney at 10 mg/kg, ip; assay type: functional; details: C57BL/6, Kidney, route intraperitoneal

Chain of 11-beta-hydroxysteroid dehydrogenase 1 (Homo sapiens, UniProt P28845) (P28845 whole entry): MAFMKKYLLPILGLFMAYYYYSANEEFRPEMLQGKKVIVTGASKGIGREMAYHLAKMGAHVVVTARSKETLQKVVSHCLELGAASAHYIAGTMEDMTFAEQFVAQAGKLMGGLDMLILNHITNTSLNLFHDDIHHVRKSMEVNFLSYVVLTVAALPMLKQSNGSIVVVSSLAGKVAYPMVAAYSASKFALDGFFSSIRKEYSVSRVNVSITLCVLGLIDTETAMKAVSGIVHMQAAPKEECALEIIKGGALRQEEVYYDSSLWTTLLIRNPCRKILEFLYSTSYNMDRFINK
Chain of 11-beta-hydroxysteroid dehydrogenase 1 (Mus musculus, UniProt P50172) (P50172 whole entry): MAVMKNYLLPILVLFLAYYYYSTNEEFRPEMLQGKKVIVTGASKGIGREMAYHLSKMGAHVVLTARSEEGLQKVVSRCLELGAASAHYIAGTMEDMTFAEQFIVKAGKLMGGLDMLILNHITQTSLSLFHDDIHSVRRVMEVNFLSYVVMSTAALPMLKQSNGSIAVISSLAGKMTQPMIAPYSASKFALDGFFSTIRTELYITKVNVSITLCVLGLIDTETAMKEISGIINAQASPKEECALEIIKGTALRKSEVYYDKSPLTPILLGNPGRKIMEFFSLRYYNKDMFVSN

| pIC50 [1] | inhibition [2] [%] | SMILES | also measured |
| --- | --- | --- | --- |
| 4.62 | 39 | N#CC(c1ccccc1)N1CCN(C(=O)C23CC4CC(CC(C4)C2)C3)CC1 (stereo not given) | – |
| < 4.00 | 0 | CCN1CCN(C(=O)C2CC2)CC1 | – |
| 6.30 | 37 | O=C(N1CCCC1)C12CC3CC(CC(C3)C1)C2 | – |
| 4.28 | 0 | CCN1CCN(C(=O)C2CCCCC2)CC1 | – |
| 4.92 | 0 | CCN1CCN(C(=O)C2(c3ccc(F)cc3)CCCC2)CC1 | – |
| 5.25 | – | O=C(N1CCc2ccccc2C1)C12CC3CC(CC(C3)C1)C2 | – |
| 6.12 | 11 | CCN1CCN(C(=O)C23CC4CC(CC(C4)C2)C3)CC1 | pIC50 [3]: 6.52 |
| 4.70 | 0 | CCN1CCN(C(=O)C2CCC(C(C)(C)C)CC2)CC1 (stereo not given) | pIC50 [3]: 5.92 |
| 4.28 | – | CCN1CCN(C(=O)C23CC4CC(CC(O)(C4)C2)C3)CC1 | – |
| 5.82 | 80 | Cc1ccc(C23CC4CC(CC(C(=O)N5CCN(Cc6ccccc6)CC5)(C4)C2)C3)cc1 | – |
| 5.14 | 9 | O=C(N1CCCCC1)C12CC3CC(CC(O)(C3)C1)C2 | – |
| 5.09 | 31 | O=C(N1CCNCC1)C12CC3CC(CC(C3)C1)C2 | – |
| 5.14 | – | Cc1ccc(C23CC4CC(CC(C(=O)N5CCN(c6ccccc6)CC5)(C4)C2)C3)cc1 | – |
| 6.30 | 40 | Cc1ccc(C23CC4CC(CC(C(=O)N5CCN(CCO)CC5)(C4)C2)C3)cc1 | pIC50 [3]: 7.37 |
| 5.11 | 26 | Cc1ccc(C23CC4CC(CC(C(=O)N5CCN(S(=O)(=O)Cc6ccccc6)CC5)(C4)C2)C3)cc1 | – |
| < 4.00 | 20 | O=C(c1ccccc1)N1CCN(C(=O)C23CC4CC(CC(C4)C2)C3)CC1 | – |
| 5.14 | 7 | O=C(N1CCN(Cc2ccccc2)CC1)C12CC3CC(CC(C3)C1)C2 | – |
| < 4.00 | 0 | CCN1CCN(C(=O)C(C)(C)C)CC1 | – |
| < 4.00 | 0 | O=C(N1CCN(c2ccccc2)CC1)C12CC3CC(CC(C3)C1)C2 | – |
| 4.32 | 0 | CCN1CCN(C(=O)CCC2CCCCC2)CC1 | – |
| 4.89 | 39 | O=C(N1CCN(S(=O)(=O)Cc2ccccc2)CC1)C12CC3CC(CC(C3)C1)C2 | – |
| 6.00 | 0 | CCN1CCN(C(=O)C23CC4CC(CC(Cc5ccccc5)(C4)C2)C3)CC1 | – |
| 6.15 | 13 | CN1CCN(C(=O)C23CC4CC(CC(C4)C2)C3)CC1 | – |

| pIC50 [1] | inhibition [2] [%] | SMILES | also measured |
| --- | --- | --- | --- |
| 5.68 | 48 | Cc1ccc(C23CC4CC(CC(C(=O)N5CCN(C(C#N)c6ccccc6)CC5)(C4)C2)C3)cc1 (stereo not given) | – |
| 5.83 | 31 | O=C(N1CCN(CCO)CC1)C12CC3CC(CC(C3)C1)C2 | pIC50 [3]: 6.31 |
| 4.82 | 0 | CCN1CCN(C(=O)C2=C(C)c3ccccc3C2)CC1 | – |
| < 4.00 | 35 | O=C(N1CCN(S(=O)(=O)c2ccccc2)CC1)C12CC3CC(CC(C3)C1)C2 | – |
| 5.39 | 1 | CCN1CCN(C(=O)CC23CC4CC(CC(C4)C2)C3)CC1 | – |
| 5.72 | 53 | Cc1ccc(C23CC4CC(CC(C(=O)N5CCN(CCc6ccccc6)CC5)(C4)C2)C3)cc1 | – |
| 4.44 | 0 | Cc1ccc(C23CC4CC(CC(C(=O)N5CCN(C(=O)c6ccccc6)CC5)(C4)C2)C3)cc1 | – |
| 6.22 | 51 | CCN1CCN(C(=O)C23CC4CC(C2)CC(c2ccc(OC)cc2)(C4)C3)CC1 | – |
| 4.92 | 7 | COCCN1CCN(C(=O)C23CC4CC(CC(C4)C2)C3)CC1 | – |
| 6.71 | 0 | O=C(N1CCCCC1)C12CC3CC(CC(C3)C1)C2 | pIC50 [3]: 6.87 |
| 4.33 | 0 | O=C(N1CCN(CCc2ccccc2)CC1)C12CC3CC(CC(C3)C1)C2 | – |
| 5.00 | 56 | Cc1ccc(C23CC4CC(CC(C(=O)N5CCN(C(C#N)C(C)C)CC5)(C4)C2)C3)cc1 (stereo not given) | – |
| 5.09 | 0 | Cc1ccc(C23CC4CC(CC(C(=O)N5CCN(Cc6ccncc6)CC5)(C4)C2)C3)cc1 | – |
| 5.14 | 0 | O=C(N1CCN(Cc2ccncc2)CC1)C12CC3CC(CC(C3)C1)C2 | – |
| < 4.00 | 40 | CCN1CCN(C(=O)CC2CCCCC2)CC1 | – |
| 6.70 | 39 | O=C(C1C2CC3CC(C2)CC1C3)N1CCCCC1 (stereo not given) | – |
| 4.36 | 0 | CCN1CCN(C(=O)C2CC3CCC2C3)CC1 (stereo not given) | – |
| 6.07 | 0 | O=C(N1CCC2CCCCC2C1)C12CC3CC(CC(C3)C1)C2 (stereo not given) | pIC50 [3]: 6.64 |
| 4.70 | 45 | CC(C)C(C#N)N1CCN(C(=O)C23CC4CC(CC(C4)C2)C3)CC1 (stereo not given) | – |
| 4.19 | 48 | Cc1ccc(C23CC4CC(CC(C(=O)N5CCN(S(=O)(=O)c6ccccc6)CC5)(C4)C2)C3)cc1 | – |
| 7.10 | 0 | Cc1ccc(C23CC4CC(CC(C(=O)N5CCN(C)CC5)(C4)C2)C3)cc1 | pIC50 [3]: 7.09; inhibition in vivo at 10 mg/kg (Mus musculus [4]): 63%; inhibition in vivo at 10 mg/kg (Mus musculus [5]): 54%; inhibition in vivo at 10 mg/kg (Mus musculus [6]): 39%; inhibition in vivo at 10 mg/kg (Mus musculus [7]): 0% |
| 5.68 | 41 | COCCN1CCN(C(=O)C23CC4CC(C2)CC(c2ccc(C)cc2)(C4)C3)CC1 | – |

| SMILES | pIC50 [1] | inhibition [2] [%] | also measured |
| --- | --- | --- | --- |
| CCN1CCN(C(=O)Cc2ccccc2)CC1 | 5.14 | 11 | – |
| O=C(N1CCCc2ccccc21)C12CC3CC(CC(C3)C1)C2 | 5.73 | 0 | pIC50 [3]: 6.32 |
| CCN1CCN(C(=O)c2ccccc2)CC1 | < 4.00 | 0 | – |
